Assays:
[1] = tested on: CCRF-CEM; assay: panel of 60 human tumor cell lines, growth inhibition (Leukemia)
[2] = tested on: LOX IMVI; assay: panel of 60 human tumor cell lines, growth inhibition (Melanoma)
[3] = tested on: M14; assay: as above; settings: M14
[4] = tested on: SK-MEL-2; assay: as above; settings: SK-MEL-2
[5] = tested on: SF-268; assay: panel of 60 human tumor cell lines, growth inhibition (CNS Cancer); settings: SF-268
[6] = tested on: HT29; assay: panel of 60 human tumor cell lines, growth inhibition (Colon Cancer); settings: HT29
[7] = tested on: SW-620; assay: as above; settings: SW-620
[8] = tested on: CAKI-1; assay: panel of 60 human tumor cell lines, growth inhibition (Renal Cancer); settings: CAKI-1
[9] = tested on: TK-10; assay: as above; settings: TK-10
[10] = tested on: MCF7; assay: panel of 60 human tumor cell lines, growth inhibition (Breast Cancer); settings: MCF7
[11] = tested on: MDA-MB-231/ATCC; assay: as above; settings: MDA-MB-231/ATCC
[12] = tested on: IGROV1; assay: panel of 60 human tumor cell lines, growth inhibition (Ovarian Cancer); settings: IGROVI
[13] = tested on: OVCAR-5; assay: as above; settings: OVCAR-5
[14] = tested on: OVCAR-8; assay: as above; settings: OVCAR-8
[15] = tested on: SK-OV-3; assay: as above; settings: SK-OV-3
[16] = tested on: A549/ATCC; assay: panel of 60 human tumor cell lines, growth inhibition (Non-Small Cell Lung Cancer); settings: A549/ATCC
[17] = tested on: NCI-H23; assay: as above; settings: NCI-H23
[18] = tested on: NCI-H522; assay: as above; settings: NCI-H522

## C=C1C(=O)O[C@H]2[C@H]1CC/C(COC(=O)N1CCC(F)(F)CC1)=C\CC[C@@]1(C)O[C@@H]21 [JVM 2-66]
[1]
  GI50: 0.682 µM
  TGI: 3.41E−6
[1]; Log10 Concentration −4.0
  Percent Growth: −53%
[1]; Log10 Concentration −5.0
  Percent Growth: −36%
[1]; Log10 Concentration −6.0
  Percent Growth: 41%
[1]; Log10 Concentration −7.0
  Percent Growth: 97%
[1]; Log10 Concentration −8.0
  Percent Growth: 97%
[2]
  GI50: 2.23 µM
  TGI: 5.77E−6
[2]; Log10 Concentration −4.0
  Percent Growth: −89%
[2]; Log10 Concentration −5.0
  Percent Growth: −29%
[2]; Log10 Concentration −6.0
  Percent Growth: 92%
[2]; Log10 Concentration −7.0
  Percent Growth: 93%
[2]; Log10 Concentration −8.0
  Percent Growth: 96%
[3]; Log10 Concentration −4.0
  Percent Growth: −85%
[3]; Log10 Concentration −5.0
  Percent Growth: 8%
[3]; Log10 Concentration −6.0
  Percent Growth: 85%
[3]; Log10 Concentration −7.0
  Percent Growth: 87%
[3]; Log10 Concentration −8.0
  Percent Growth: 96%
[4]
  GI50: 2.93 µM
  TGI: 8.95E−6
[4]; Log10 Concentration −4.0
  Percent Growth: −84%
[4]; Log10 Concentration −5.0
  Percent Growth: −5%
[4]; Log10 Concentration −6.0
  Percent Growth: 98%
[4]; Log10 Concentration −7.0
  Percent Growth: 99%
[4]; Log10 Concentration −8.0
  Percent Growth: 100%
[5]
  GI50: 10.7 µM
  TGI: 2.47E−5
[5]; Log10 Concentration −4.0
  Percent Growth: −84%
[5]; Log10 Concentration −5.0
  Percent Growth: 54%
[5]; Log10 Concentration −6.0
  Percent Growth: 95%
[5]; Log10 Concentration −7.0
  Percent Growth: 93%
[5]; Log10 Concentration −8.0
  Percent Growth: 95%
[6]
  GI50: 3.3 µM
  TGI: 1.05E−5
[6]; Log10 Concentration −4.0
  Percent Growth: −84%
[6]; Log10 Concentration −5.0
  Percent Growth: 2%
[6]; Log10 Concentration −6.0
  Percent Growth: 102%
[6]; Log10 Concentration −7.0
  Percent Growth: 101%
[6]; Log10 Concentration −8.0
  Percent Growth: 97%
[7]
  GI50: 1.46 µM
  TGI: 4.37E−6
[7]; Log10 Concentration −4.0
  Percent Growth: −86%
[7]; Log10 Concentration −5.0
  Percent Growth: −38%
[7]; Log10 Concentration −6.0
  Percent Growth: 67%
[7]; Log10 Concentration −7.0
  Percent Growth: 97%
[7]; Log10 Concentration −8.0
  Percent Growth: 99%
[8]
  GI50: 2.03 µM
  TGI: 6.16E−6
[8]; Log10 Concentration −4.0
  Percent Growth: −97%
[8]; Log10 Concentration −5.0
  Percent Growth: −22%
[8]; Log10 Concentration −6.0
  Percent Growth: 82%
[8]; Log10 Concentration −7.0
  Percent Growth: 91%
[8]; Log10 Concentration −8.0
  Percent Growth: 97%
[9]
  GI50: 2.6 µM
  TGI: 6.55E−6
[9]; Log10 Concentration −4.0
  Percent Growth: −96%
[9]; Log10 Concentration −5.0
  Percent Growth: −23%
[9]; Log10 Concentration −6.0
  Percent Growth: 102%
[9]; Log10 Concentration −7.0
  Percent Growth: 95%
[9]; Log10 Concentration −8.0
  Percent Growth: 94%
[10]
  GI50: 1.62 µM
  TGI: 4.91E−6
[10]; Log10 Concentration −4.0
  Percent Growth: −75%
[10]; Log10 Concentration −5.0
  Percent Growth: −32%
[10]; Log10 Concentration −6.0
  Percent Growth: 72%
[10]; Log10 Concentration −7.0
  Percent Growth: 83%
[10]; Log10 Concentration −8.0
  Percent Growth: 89%
[11]
  GI50: 2.01 µM
  TGI: 6.59E−6
[11]; Log10 Concentration −4.0
  Percent Growth: −84%
[11]; Log10 Concentration −5.0
  Percent Growth: −18%
[11]; Log10 Concentration −6.0
  Percent Growth: 79%
[11]; Log10 Concentration −7.0
  Percent Growth: 92%
[11]; Log10 Concentration −8.0
  Percent Growth: 101%
[12]
  GI50: 2.31 µM
  TGI: 7.26E−6
[12]; Log10 Concentration −4.0
  Percent Growth: −60%
[12]; Log10 Concentration −5.0
  Percent Growth: −14%
[12]; Log10 Concentration −6.0
  Percent Growth: 87%
[12]; Log10 Concentration −7.0
  Percent Growth: 106%
[12]; Log10 Concentration −8.0
  Percent Growth: 107%
[13]
  GI50: 4.25 µM
  TGI: 1.60E−5
[13]; Log10 Concentration −4.0
  Percent Growth: −83%
[13]; Log10 Concentration −5.0
  Percent Growth: 21%
[13]; Log10 Concentration −6.0
  Percent Growth: 99%
[13]; Log10 Concentration −7.0
  Percent Growth: 90%
[13]; Log10 Concentration −8.0
  Percent Growth: 96%
[14]
  GI50: 2.83 µM
  TGI: 1.01E−5
[14]; Log10 Concentration −4.0
  Percent Growth: −86%
[14]; Log10 Concentration −6.0
  Percent Growth: 91%
[14]; Log10 Concentration −7.0
  Percent Growth: 96%
[14]; Log10 Concentration −8.0
  Percent Growth: 98%
[15]
  GI50: 16.2 µM
  TGI: 3.22E−5
[15]; Log10 Concentration −4.0
  Percent Growth: −83%
[15]; Log10 Concentration −5.0
  Percent Growth: 85%
[15]; Log10 Concentration −6.0
  Percent Growth: 100%
[15]; Log10 Concentration −7.0
  Percent Growth: 92%
[15]; Log10 Concentration −8.0
  Percent Growth: 100%
[16]
  GI50: 11.3 µM
  TGI: 2.74E−5
[16]; Log10 Concentration −4.0
  Percent Growth: −73%
[16]; Log10 Concentration −5.0
  Percent Growth: 57%
[16]; Log10 Concentration −6.0
  Percent Growth: 93%
[16]; Log10 Concentration −7.0
  Percent Growth: 97%
[16]; Log10 Concentration −8.0
  Percent Growth: 98%
[17]
  GI50: 2.59 µM
  TGI: 8.51E−6
[17]; Log10 Concentration −4.0
  Percent Growth: −70%
[17]; Log10 Concentration −5.0
  Percent Growth: −7%
[17]; Log10 Concentration −6.0
  Percent Growth: 98%
[17]; Log10 Concentration −7.0
  Percent Growth: 96%
[17]; Log10 Concentration −8.0
  Percent Growth: 93%
[18]
  GI50: 1.25 µM
  TGI: 2.75E−6
[18]; Log10 Concentration −4.0
  Percent Growth: −80%
[18]; Log10 Concentration −5.0
  Percent Growth: −81%
[18]; Log10 Concentration −6.0
  Percent Growth: 64%
[18]; Log10 Concentration −7.0
  Percent Growth: 92%
[18]; Log10 Concentration −8.0
  Percent Growth: 91%
